Source: patent US4005206A, “[9H]-Pyrido-[3,4-b]-indoles” (Roussel-UCLAF, priority 1976, dated 1977)
pIC50: −log10 of the molar value. Values after ≈ are worked out from the molar mass of the structure shown. Structures can show the parent of a compound that is named as a salt.

How the values were obtained:
amytal-induced sleep = experiment: Potentialization of sleeping time (amytal); format: in vivo, female mice; conditions: for minimal effective dose: Mus musculus, ip, 1 h, i.p. one hour before 80 mg/kg i.v. amytal, female mice 18 to 22 g, 25° C, read-out: DE50 (minimum dose for significantly prolonging the duration of sleep); for neurosedative activity (in words): conclusion from Table II
Description: 2. Potentialization of sleeping time
This test was effected with amytal (5-ethyl-5-isoamyl-barbituric acid) on groups of female mice weighing 18 to 22 g and held at 25° C for the duration of the test. The test products were administered intraperitoneally at different does one hour before the intravenous administration of 80 mg/kg of amytal and the time of sleep was recorded as the suspending time for the straighting reflex of the mice as negative.

[1] = tested on: serotonine-provoked contraction of guinea pig ileon; experiment: Antiserotonine activity on isolated ileon; format: cell-based; conditions: for IC50: Cavia porcellus, isolated guinea pig ileon, Tyrode liquid 37° C, contact time one minute, read-out: IC50 (approximate 50% inhibiting concentration, contraction by serotonine)
Description: Serotonine provokes contraction of a certain number of smooth muscles and especially guinea pig ileon and antiserotonine activity is determined in vitro on the isolated ileon of the guinea pig immersed in oxygenated Tyrode liquid at 37° C. The activity of the antagonist is measured by the concentration thereof which after a contact time of one minute diminishes by about 50% the contraction of a portion of ileon when a standard dose of serotonine is added to the Tyrode liquid. The approximate 50% inhibiting concentration (IC50) was determined in micrograms per ml and the results are in Table IV.

Acute toxicity = conditions: mouse, in vivo, ip; intraperitoneal, mice, mortality 48 hours later; read-out: Approximate DL50 (50% lethal dose)
Description: The 50% lethal dose (DL50) was determined by intraperitoneal administration of the products to mice and the mortality was determined 48 hours later.

[2] = tested on: toxicity of the amphetamine group (dexamphetamine sulfate); experiment: Antagonism toward amphetamine type (dexamphetamine-induced mortality); format: in vivo, male mice; conditions: for ED50: Mus musculus, ip, i.p. one hour before 15 mg/kg i.p. dexamphetamine sulfate, mortality at 4 hours, male mice, read-out: DE50 (dose which reduced by 50% the number of dead animals); for antagonism with respect to the toxicity of the amphetamine group (in words): conclusion from Table I
Description: 1. Antagonism toward amphetamine type
The antagonism of the compounds with regard to amphetaminic group was studied on groups of 10 male mice which received intraperitoneally 15 mg/kg of dexamphetamine sulfate one hour after the intraperitoneal administration of the test compound.
The mortality per group was totally counted 4 hours after the administration of dexamphetamine sulfate and the DE50 dose which reduced by 50% the number of dead animals was determined as shown in Table I.

[3] = tested on: platelet aggregation caused by collagen; experiment: Platelet aggregation caused by collagen (turbidimetric method of Born); format: cell-based, rabbit; conditions: for pIC50: Oryctolagus cuniculus, rabbit platelet-rich plasma, 40 μg/ml collagen, read-out: IC50 (dose which inhibited by 50% the aggregation caused by collagen); for activity against platelet aggregation caused by collagen (in words): conclusion in words
Description: Platelet aggregation is effected with a Mustard aggregometer using the turbidimetric method of Born [J. Physiol., Vol. 168 (1963), p. 178-195] which consists of measuring the variation in transmission of a light ray or beam passing through a tube containing a plasma rich in platelets. When the aggregates are formed, the amount of light transmitted is greater and the optical density is diminished. The platelets used are obtained from rabbit plasma and the agent inducing the aggregation was 40 μg/ml of collagen. The 50% inhibiting concentration (IC50) was determined for each product which was the dose which inhibited by 50% the aggregation caused by collagen.

[4] = tested on: rigidity provoked by reserpine; experiment: Antagonism to reserpinic rigidity (electromyogram); format: in vivo, rats; set-up: key to Antagonism to reserpine rigidity: The results were expressed by an increasing number of + sign; ++: The results were expressed by an increasing number of + sign; conditions: for Antagonism to reserpine rigidity: 20 mg/kg i.v., 30 minutes after 10 mg/kg i.v. reserpine, EMG, rats; for activity against reserpine rigidity (in words): dose of 20 mg/kg
Description: 3. Antagonism to reserpinic rigidity
This test was effected on rats using the procedure of Jurna I. [Arch. Pharmak. Exp. Path., Vol. 260 (1968), p. 80-88] wherein the electromyogram (EMG) caused by a dorsiflexion due to the shock of the foot by electrodes placed against the muscles of the front portion of the rear paw of the animal. A dose of 10 mg/kg of reserpine was intravenously administered and then 30 minutes later when the hypertonicity of the muscle was the maximum, the test product was intravenously administered at a dose of 20 mg/kg. The inhibition was observed by the electromyogram showing the antagonism exercised by the test product against the rigidity provoked by reserpine.

Work on `COc1ccc2[nH]cc(CC3NCCc4c3[nH]c3ccc(O)cc43)c2c1` (centres unmarked) [Example 2, 1-(5'-methoxy-3'-indolyl-methyl)-6-hydroxy-1,2,3,4-tetrahydro[9H]-pyrido-[3,4-b]-indole] yielded a minimal effective dose (amytal-induced sleep) of 50 mg/kg, an IC50 [1] of 0.5 to 1 mg/L (≈ 1.44 to 2.88 µM) and an LD50 at 48 h (Acute toxicity) of 200 mg/kg.
`Clc1ccc2[nH]cc(CC3NCCc4c3[nH]c3ccccc43)c2c1` (centres unmarked) [Example 4, 1-(5'-chloro-3'-indolyl-methyl)-1,2,3,4-tetrahydro-[9H]-pyrido-[3,4-b]-indole hydrochloride] gave a minimal effective dose (amytal-induced sleep) of 50 mg/kg and an LD50 at 48 h (Acute toxicity) of 500 mg/kg.
For `Oc1ccc2[nH]cc(CC3NCCc4c3[nH]c3ccccc43)c2c1` (centres unmarked) [Example 9, 1-(5'-hydroxy-3'-indolyl-methyl)-1,2,3,4-tetrahydro-[9H]-pyrido-[3,4-b]-indole-hydrochloride], the ED50 [2] was 50 mg/kg, the IC50 [1] was 0.1 to 0.2 mg/L and the “antiserotonine activity (in words)” value ([1]; conclusion in words) was “important antiserotonine activity”. For the same molecule, the pIC50 [3] was 6.00 and the “activity against platelet aggregation caused by collagen (in words)” value [3] was “important activity”.
With `COc1ccc2[nH]cc(CC3NCCc4c3[nH]c3ccccc43)c2c1` (centres unmarked) [Example 5, 1-(5'-methoxy-3'-indolyl-methyl)-1,2,3,4-tetrahydro-[9H]pyrido-[3,4-b]-indole-hydrochloride] the minimal effective dose (amytal-induced sleep) was 50 mg/kg, the “Antagonism to reserpine rigidity” value [4] was “++” and the “activity against reserpine rigidity (in words)” value [4] was “very active”. It also gave an IC50 [1] of 2 mg/L, a pIC50 [3] of roughly 4.00 and an LD50 at 48 h (Acute toxicity) of 150 mg/kg.
In the case of `Clc1ccc2[nH]c3c(c2c1)CCNC3Cc1c[nH]c2ccccc12` (centres unmarked) [Example 7, 6-chloro-1-(3'-indolylmethyl)-1,2,3,4-tetrahydro-[9H]-pyrido-[3,4-b]-indole], the ED50 [2] was 20 mg/kg, the “antagonism with respect to the toxicity of the amphetamine group (in words)” value [2] was “important antagonism” and the minimal effective dose (amytal-induced sleep) was 10 mg/kg. For the same molecule, the “neurosedative activity (in words)” value (amytal-induced sleep) was “very important neurosedative activity”, the IC50 [1] was 1 to 2 mg/L (≈ 2.98 to 5.96 µM) and the LD50 at 48 h (Acute toxicity) was 150 mg/kg.
With `Oc1ccc2[nH]c3c(c2c1)CCNC3Cc1c[nH]c2ccccc12` (centres unmarked) [Example 6, 6-hydroxy-1-(3'-indolyl-methyl)-1,2,3,4-tetrahydro [9H]pyrido-[3,4-b]-indole-fumarate] the ED50 [2] was 35 mg/kg, the “antagonism with respect to the toxicity of the amphetamine group (in words)” value [2] was “important antagonism” and the minimal effective dose (amytal-induced sleep) was 20 mg/kg. The IC50 [1] was 2 mg/L (≈ 6.3 µM), the “activity against platelet aggregation caused by collagen (in words)” value [3] was “important activity” and the LD50 at 48 h (Acute toxicity) was 150 mg/kg.
With `COc1ccc2[nH]c3c(c2c1)CCNC3Cc1c[nH]c2ccccc12` (centres unmarked) [Example 3, 1-(3'-indolylmethyl)-6-methoxy-1,2,3,4-tetrahydro-[9H]-pyrido-[3,4-b]-indole hydrochloride] the “Antagonism to reserpine rigidity” value [4] was “+”, the IC50 [1] was 1 mg/L and the LD50 at 48 h (Acute toxicity) was 350 mg/kg.
In the case of `COc1ccc2[nH]cc(CC3NCCc4c3[nH]c3ccc(OC)cc43)c2c1` (centres unmarked) [Example 1, 1-(5'-methoxy-3'-indolyl-methyl)-6-methoxy-1,2,3,4-tetrahydro[9H]-pyrido-[3,4-b]-indole-hydrochloride], the minimal effective dose (amytal-induced sleep) was 10 mg/kg, the “neurosedative activity (in words)” value (amytal-induced sleep) was “very important neurosedative activity” and the “Antagonism to reserpine rigidity” value [4] was “++”. The “activity against reserpine rigidity (in words)” value [4] was “very active”, the IC50 [1] was 0.5 mg/L and the LD50 at 48 h (Acute toxicity) was 150 mg/kg.
`c1ccc(COc2ccc3[nH]cc(CC4NCCc5c4[nH]c4ccc(OCc6ccccc6)cc54)c3c2)cc1` (centres unmarked) [Example 10, 1-(5'-benzyloxy-3' -indolylmethyl)-6-benzyloxy-1,2,3,4-tetrahydro-[9H]-pyrido-[3,4-b]-indole-hydrochloride] showed an LD50 at 48 h (Acute toxicity) of 300 mg/kg.
